# Earlier results as cited in patent US6566543B2, “2-arachidonylglycerol (2-AG)-an inhibitor of tumor necrosis factor-α and neuroprotector of brain in closed head injury” (Yissum Research Development Company of The Hebrew …, priority 2000, dated 2003).
# How the values were obtained:
# cannabinoid receptors = details: previously shown, Ben-Shabat et al., 1998
# TNF-α = details: astrocytes
# nitric oxide release = details: astrocytes
compound,measurement,setting,value
"CCCCCCCCCCCCCCCC(=O)OC(CO)CO [2-PalmG, 2-palmitoylglycerol]",activity in numerous in vivo and in vitro assays (including binding to the cannabinoid receptors),cannabinoid receptors,inactive
"CCCCC/C=C\C/C=C\CCCCCCCC(=O)OC(CO)CO [2-LinoG, 2-linoleoylglycerol]",activity in numerous in vivo and in vitro assays (including binding to the cannabinoid receptors),cannabinoid receptors,inactive
"CCCCC/C=C\C/C=C\C/C=C\C/C=C\CCCC(=O)NCCO [Anandamide, arachidonylethanolamide]",inhibition of TNF-α production,TNF-α,relatively modest
same,nitric oxide release,nitric oxide release,blocked nitric oxide release
